Source: patent US12358959B2, “Compositions and methods for oligodendrocyte development” (CHILDREN'S MEDICAL CENTER CORPORATION, priority 2016, dated 2025)
“Also recorded” adds a separate entry of the source.

Tests used:
cerebellar slices = experiment: Remyelination of LPC-demyelinated cerebellar slice cultures; format: cell-based, mouse; settings: Gpr56+/+;Tgm2−/− cerebellar slices, LPC 24 hr, 4 days of remyelination, TG2 20 nM; listed as Recombinant TG2
From the text: FIG. 12D provides composite images created in Image J showing myelinated axons (black) for quantification. FIG. 12E is a graph showing percentage of myelinated axons after remyelination. Remyelination was reduced in cerebellar slices that lacked OPC-derived GPR56. *P=0.0135, paired t-test, N=5 per genotype. FIG. 12F provides representative images of cerebellar slice cultures from P10 Gpr56^+/+; Tgm2^−/− and Gpr56^−/−; Tgm2^−/− mouse cerebella that were demyelinated with LPC for 24 hr followed by 4 days of remyelination in the presence or absence of TG2 (20 nM). Slices were immunostained with NF200 (white) and MBP (light gray); myelinated fibers appear yellow in merged images. Scale bar, 100 μm.
Gpr56^fl/fl;PdgfrαCreER^− and Gpr56^fl/fl;PdgfrαCreER^+ P7 pups were injected with tamoxifen (50 mg kg^−1) for 3 days before the cerebellar harvesting. All cerebella were harvested on P10 and placed in ice-cold Hank's buffer (Fisher Scientific) before being cut into 300 μm thick sagittal sections with a vibratome (Leica Biosystems). Three slices were placed onto inserts (Millicell 0.4 μm, Millipore) in media containing 50% MEM, 25% Horse Serum, 25% Hank's Buffer, 1% GlutaMax, 5 mg/ml Glucose. […] Quantification of myelinated fibers was performed using Image J by subtracting background and applying threshold for both red and green channel, before measuring both myelinated and unmyelinated axon fibers.

[1] = system: oligodendrocyte precursors (OPCs); experiment: OPC proliferation on laminin-111 or fibronectin with recombinant TG2; format: cell-based, mouse
From the text: P=0.70 (control vs. TG2-W241A); **P=0.0088 (TG2 vs. TG2-W241A). […] FIG. 16D depicts a Western blot of active RhoA (top panel) and total RhoA (bottom panel) in the corpus callosum (CC) of Tgm2^+/+ and Tgm2^−/− mice. FIG. 16E is a graph showing that the relative level of active RhoA to total RhoA was diminished in the CC of Tgm2^−/− mice compared to […]. *P=0.0207, unpaired t-test, N=3 per genotype. FIG. 16F depicts a Western blot of GPR56^N in the supernatant of HEK 293T cell culture after exposed to either TG2 or TG2+laminin-111 (top panel), GTP-RhoA (middle panel) and total RhoA (lower panel) in HEK 293T cell pellet exposed to either TG2 or TG2+laminin-111. FIG. 16G is a graph showing that released GPR56 NTF was increased in the presence of both TG2 and laminin-111. ***P=0.0002; One-way ANOVA followed by Tukey post-hoc test, F (2,6)=49.66, n.s. P=0.95 (control vs. TG2); ***P=0.0003 (control vs. TG2+laminin-111); ***P=0.0004 (TG2 vs. TG2+laminin-111); N=3 per treatment group. FIG. 16H is a graph showing that the relative level of GTP-RhoA to total RhoA was increased in the presence of both TG2 and laminin-111, corresponding to the increased GPR56 NTF in the supernatant. **P=0.0028; One-way ANOVA followed by Tukey post-hoc test, F (2,6)=18.19, n.s. P=0.75 (control vs. TG2); **P=0.0035 (control vs. TG2+laminin-111); **P=0.0071 (TG2 vs. TG2+laminin-111) N=3 per treatment group. Error bars are mean±s.e.m in FIGS. 16E, 16G, and 16H.
To establish conditions for mechanistic investigation of the function of TG2 on OPC GPR56 during myelination and remyelination, in vitro experiments were performed with wt and Gpr56^−/− oligodendrocyte precursors (OPCs) and human recombinant TG2. […] TG2 is an extracellular protein with intrinsic transamidation activity, capable of cross-linking ECM proteins, including laminin-111 (Aeschlimann et al., J Biol Chem 267, 11316-11321, 1992; Belkin, FEBS J 278, 4704-4716, 2011). […] To confirm that TG2 regulates OPC proliferation in a GPR56-dependent manner, OPCs derived from P5 Gpr56^+/+ or Gpr56^−/− pups were cultured in the presence of laminin-111, with or without recombinant TG2. TG2-associated proliferation was attenuated in Gpr56^−/− OPCs (FIG. 16C), further supporting a GPR56-dependent TG2 function on OPC proliferation.
Oligodendrocyte precursor cells (OPCs) were isolated from mixed male and female P5-8 Gpr56^+/+ or Gpr56^−/− mouse forebrains as previously described (Wang et al., Neuron 29, 603-614, 2001; Watkins et al., Neuron 60, 555-569, 2008). Briefly, OPCs were purified by negatively selecting with mouse anti-Thy 1.2 (Serotec, Cat #MCA02R) and mouse anti-GalC (Millipore, Cat #MAB342), followed by mouse anti-04 (04 hybridoma supernatant) for positive selection. After releasing OPCs from the 04 plate by trypsinization, cells were resuspended in proliferation media containing PDGF-AA and NT-3 (PreproTech). OPCs were plated on coverslips coated with poly-D-lysine before coating with laminin I (R&D Systems, Cat #3400-010-01) or fibronectin (Millipore, Cat #341668) as previously described (Dugas et al., J Neurosci 26, 10967-10983, 2006). After 24 hr, TG2 (2 nM) was added to the cultures and incubated for an additional 24 hr before fixation with 4% PFA and staining for PDGFRα and Ki67.

Transglutaminase 2 [TG2]
Remyelination (percentage of myelinated axons) (cerebellar slices): rescued remyelination failure; also recorded: promotes remyelination
OPC proliferation ([1]; Gpr56−/− OPCs, in the presence of laminin-111, with recombinant TG2): attenuated
OPC proliferation ([1]; Gpr56−/− OPCs, in the presence of laminin-111, with recombinant TG2, listed as recombinant TG2): failed to respond
OPC proliferation, wild type TG2 vs enzymatic dead mutant ([1]; versus control, One-way ANOVA, Tukey post-hoc): stimulated OPC proliferation
OPC proliferation ([1]; wt OPCs, basal condition (no laminin-111), TG2 2 nM, 24 hr): failed to augment
OPC proliferation ([1]; wt OPCs, in the presence of laminin-111, TG2 2 nM, 24 hr): stimulated OPC proliferation
OPC proliferation ([1]; wt OPCs, in the presence of laminin-111, TG2 2 nM, 24 hr, listed as recombinant TG2): significantly increased
